Values after ≈ are worked out from the molar mass of the structure shown. Read-outs that look alike come from different tables or passages of the source.
Columns and labels:
K. pneumoniae 225 [1] = assay: NCCLS microdilution susceptibility test; format: cell-based, Klebsiella pneumoniae; settings: Klebsiella pneumoniae, 225
K. pneumoniae 225 [2] = assay: NCCLS disk diffusion assay; format: cell-based, Klebsiella pneumoniae; settings: disk diffusion, Kleb 225
K. pneumoniae = assay: Agar dilution MIC, South African isolates; format: cell-based, Klebsiella pneumoniae; settings: tzp with tazobactam 4 μg/ml
Description: (§1) The strains were provided in response to a request for all strains of Enterobacteriaceae, lacking inducible beta-lactamases, that were intermediate or resistant to cefotaxime or ceftazidime. […]

E. coli = assay: Agar dilution MIC, South African isolates; format: cell-based, Escherichia coli; settings: tzp with tazobactam 4 μg/ml
Description: as §1

E. aerogenes [3] = format: cell-based, Enterobacter aerogenes
Procedure: Antibiotic susceptibilities were determined by standard disk-diffusion (NCCLS Standard M2-A6) and agar-dilution (NCCLS Standard M7-A4) procedures. Disks were obtained from Becton Dickinson Microbiology Systems (Cockeysville, Md.). […] Throughout this study, results were interpreted using NCCLS criteria for disk diffusion (NCCLS M2-A6) and broth dilution (NCCLS M7-A4).

E. aerogenes [4] = assay: Double-disk potentiation test; format: cell-based, Enterobacter aerogenes; settings: all the E. aerogenes strains selected; potentiation by clavulanic acid
Description: This test described by Jarlier et al., Rev. Infect. Dis.

[5] = test system: E. coli C600N transconjugants; assay: Susceptibility of transconjugants; format: cell-based, Escherichia coli; settings: E. coli C600N transconjugants of E. aerogenes 187, 200, 220, 184
Procedure: Antibiotic susceptibilities were determined by standard disk-diffusion (NCCLS Standard M2-A6) and agar-dilution (NCCLS Standard M7-A4) procedures. Disks were obtained from Becton Dickinson Microbiology Systems (Cockeysville, Md.). Disk-diffusion susceptibilities to the following antibiotics were determined, ampicillin; amoxicillin clavulanic acid; aztreonam; cefazolin; cefoxitin; cefuroxime; cefotaxime; ceftriaxone; ceftazidime; cefepime; imipenem; gentamicin; trimethoprim/sulfamethoxazole and ciprofloxacin. […] The following quality control strains were run simultaneously with the test organisms Escherichia coli ATCC 25922, Pseudomonas aeruginosa ATCC 27853, and E. coli ATCC 35218. Throughout this study, results were interpreted using NCCLS criteria for disk diffusion (NCCLS M2-A6) and broth dilution (NCCLS M7-A4).
[…]. The filter paper mating technique with overnight incubation at 37° C. were performed as described previously (Philippon et al., Antimicrob. Agents Chemother., 33:1131-1136 (1989)). Transconjugants were selected on LB (Luria Bertani) agar [Difco (Detroit, Mich.)] plates containing 12 μg per ml nalidixic acid and 20 μg per ml ampicillin.

[6] = test system: E. coli HB101 transformant (17 kb plasmid); settings: disk diffusion, Tr (17 kb) = transformant E. coli HB101
[7] = test system: E. coli C600 transconjugant; settings: disk diffusion, Tc = transconjugate E. coli C600
K. pneumoniae 225 [8] = settings: test drug disk around amoxicillin-clavulanate disk
[9] = biological target: beta-lactamases in sonic extracts of K. pneumoniae (Escherichia coli, UniProt P62593); settings: 0.75 μg/ml cefotaxime
[10] = biological target: beta-lactamases in sonic extracts of K. pneumoniae (Klebsiella pneumoniae, UniProt P0AD64); settings: Kpn1, beta-lactamase pI 7.6 (SHV-1); 0.75 μg/ml cefotaxime
[11] = biological target: beta-lactamases in sonic extracts of K. pneumoniae (Klebsiella pneumoniae, UniProt P0AD64, E235K/G234S); settings: Kpn2, beta-lactamase pI 8.2 (SHV-5); 0.75 μg/ml cefotaxime
[12] = test system: beta-lactamases in sonic extracts of K. pneumoniae; settings: 0.75 μg/ml cefotaxime
K. pneumoniae 225 [13] = assay: Three-dimensional test (enzymatic inactivation of antibiotics); settings: beta-lactamase-mediated hydrolysis by K. pneumoniae 225, lawn E. coli ATCC 25922
[14] = biological target: beta-lactamases in sonic extracts of E. coli (Escherichia coli, UniProt P62593); assay: Isoelectric focusing overlay: cefotaxime hydrolysis and inhibitors; settings: 0.75 μg/ml cefotaxime
[15] = test system: beta-lactamases in sonic extracts of E. coli; assay: as above; settings: 0.75 μg/ml cefotaxime
[16] = biological target: beta-lactamases in sonic extracts of P. mirabilis (Escherichia coli, UniProt P62593, E102K/R162S); assay: as above; settings: beta-lactamase pI 5.6 (TEM-10 or 26), 0.75 μg/ml cefotaxime
[17] = biological target: single beta-lactamase in E. coli cell extracts (Escherichia coli, UniProt P62593, E102K/R162S); assay: Spectrophotometric hydrolysis assay on crude beta-lactamase extracts; settings: E. coli Pit 64 extract, beta-lactamase pI 5.6; 100 μM substrate
[18] = test system: beta-lactamases in sonic extracts of E. aerogenes; assay: Isoelectric focusing overlay: cefotaxime hydrolysis, inhibitors, induction; settings: 0.75 μg/ml cefotaxime

CO/N=C(\C(=O)N[C@@H]1C(=O)N2C(C(=O)O)=C(COC(C)=O)CS[C@H]12)c1csc(N)n1 [cefotaxime]
MIC (K. pneumoniae 225 [1]): 16 µg/mL (≈ 35.1 µM)
Zone Size (K. pneumoniae 225 [2]): 15 mm
MIC range (K. pneumoniae; resistance phenotype Kpn1, 8 strains): 0.25 to 1 µg/mL
MIC range (K. pneumoniae; resistance phenotype Kpn2, 28 strains): 4 to 64 µg/mL
MIC range (K. pneumoniae; resistance phenotype Kpn3 (K. pneumoniae Pit 68), 1 strain, listed as ctx): 4 µg/mL
MIC range (E. coli; resistance phenotype Ec1, 3 strains): 1 µg/mL
MIC range (E. coli; resistance phenotype Ec2, 1 strain): 16 µg/mL
MIC range (E. aerogenes [3]; 1 E. aerogenes strain with Bush group 1 and group 2be (SHV-3) enzymes): 1 µg/mL (≈ 2.2 µM)
MIC range (E. aerogenes [3]; 1 E. aerogenes strain with Bush group 1 and group 2be (SHV-5) enzymes): 1 to 2 µg/mL
MIC range (E. aerogenes [3]; 29 E. aerogenes strains with Bush group 1 and group 2be (SHV-4) enzymes): 1 to 2 µg/mL
susceptibility by MIC (E. aerogenes [3]; all E. aerogenes strains): decreased susceptibility
double disk test (E. aerogenes [4]): positive
susceptibility after transfer of plasmids encoding SHV beta-lactamase genes [5]: decreased susceptibility
Zone Size [6]: 34 mm
Zone Size [7]: 12 mm
clavulanate double-disk potentiation test (K. pneumoniae 225 [8]): positive
ctx hydrolysis ([9]; Kpn2, beta-lactamase pI 5.4 (TEM-1)): No
ctx hydrolysis ([9]; Kpn3, beta-lactamase pI 5.4 (TEM-1)): No
ctx hydrolysis [10]: No
ctx hydrolysis [11]: Yes
ctx hydrolysis ([12]; Kpn1, beta-lactamase pI 5.6 (TEM-10 or 26)): Yes
ctx hydrolysis ([12]; Kpn2, beta-lactamase pI 7.6 (SHV-2 or 8)): Yes
ctx hydrolysis ([12]; Kpn3, beta-lactamase pI 8.0 (AmpC)): Yes
three dimensional test (K. pneumoniae 225 [13]): positive
ctx hydrolysis ([14]; Ec1, beta-lactamase pI 5.4 (TEM-1)): No
ctx hydrolysis ([14]; Ec2, beta-lactamase pI 5.4 (TEM-1)): No
ctx hydrolysis ([15]; Ec1, beta-lactamase pI 5.6 (TEM-10 or 26)): Yes
ctx hydrolysis ([15]; Ec2, beta-lactamase pI 7.6 (SHV-2 or 8)): Yes
ctx hydrolysis [16]: Yes
Hydrolysis [17]: 1 nmol of substrate hydrolyzed/m
Ctx Hydrolysis ([18]; SHV-3 strain (1), Bush group 1 enzyme pI 8.3): no
Ctx Hydrolysis ([18]; SHV-3 strain (1), Bush group 2be enzyme pI 6.9): yes
Ctx Hydrolysis ([18]; SHV-4 strains (29), Bush group 1 enzyme pI 8.3): no
Ctx Hydrolysis ([18]; SHV-4 strains (29), Bush group 2be enzyme pI 7.8): yes
Ctx Hydrolysis ([18]; SHV-5 strain (1), Bush group 1 enzyme pI 8.3): no
Ctx Hydrolysis ([18]; SHV-5 strain (1), Bush group 2Be enzyme pI 8.0): yes

— US6893846B2, “Primers for use in detecting beta-lactamases” (priority 1998, dated 2005)
